Patent US20150209364A1, “METHOD FOR TREATING EPIDERMOID CARCINOMA” (Johnpro Biotech Inc., priority 2011, published 2015)

Tested on: erlotinib-resistant H1975 cells
Test: cells
Type: cell-based
Settings: Homo sapiens, NCI-H1975, 72 h, read-out: IC50 (cell viability)
Method: The cells were plated at 5×10^4/ml in 100 μL of culture medium in a 96-well microtiter plate, followed by incubation with drugs. Cell viability after the treatment was determined using 3-(4,5-dimethylthiazol-2-yl)-5(3-carboxymethoxy-phenyl)-2-(4-sulfophenyl)-2H-tetrazolium (MTS) assay (Promega, Madison, Wis.) per the manufacturer's instruction. Absorbance was measured at 490 nm for MTS assay with an enzyme-linked immunosorbent assay plate reader from MTX Lab Systems, Inc. (Vienna, Va.). […] Each experiment was performed in triplicate, and the results were expressed as mean±SD.

IC50: 75 µM
SMILES: CCN(CC)CCCC(C)Nc1ccnc2cc(Cl)ccc12 (stereo not shown) [chloroquine]
